Where a name gives a salt, the structure may show the parent alone.
Legend:
[1] = system: spontaneously hypertensive rats; assay: Measurement of blood pressure and heart rate on awake rats (telemetry); format: in vivo; settings: maximum reduction in heart rate, oral administration of 3 mg/kg, awake SH rats
Procedure: B-5. Measurement of Blood Pressure and Heart Rate
Awake spontaneously hypertensive rats (SH-Ratten) carrying an internal transmitter capable of measuring permanently both blood pressure and heart rate (telemetric monitoring of hemodynamic parameters) and sitting in a cage fitted with motion sensors are orally administered test substances in various dosages. Blood pressure and heart rate and changes thereof, and also the movements and the activity of the animals are then recorded and evaluated for 24 hours.

[2] = i.v. pharmacokinetics in Wistar rats; format: in vivo; settings: after i.v. administration
Procedure: e) i.v. Pharmacokinetics in Wistar Rats:
(§1) On the day before administration of the substance, a catheter for obtaining blood is implanted in the jugular vein of the experimental animals (male Wistar rats, body weight 200-250 g) under Isofluran® anesthesia.
(§2) On the day of the experiment, a defined dose of the test substance is administered as solution into the tail vein using a Hamilton® glass syringe (bolus administration, duration of administration<10 s). Blood samples (8-12 time points) are taken through the catheter sequentially over the course of 24 h after administration of the substance. Plasma is obtained by centrifuging the samples in heparinized tubes. Acetonitrile is added to a defined plasma volume per time point to precipitate proteins. After centrifugation, test substance and, where appropriate, known cleavage products of the test substance in the supernatant are determined quantitatively using a suitable LC/MS-MS method.
The measured plasma concentrations are used to calculate pharmacokinetic parameters of the test substance and of the active ingredient compound (A) liberated therefrom, such as AUC, Cmax, T1/2 (half-life) and CL (clearance).

[3] = Stability in buffer at various pH values; format: physicochemical
Procedure: b) Stability in Buffer at Various pH Values:
0.3 mg of the test substance is weighed into a 2 ml HPLC vial and 0.5 ml of acetonitrile or acetonitrile/DMSO (9:1) is added. The substance is dissolved by putting the sample vessel in an ultrasonic bath for about 10 seconds. Then 0.5 ml of the respective (buffer) solution is added, and the sample is again treated in the ultrasonic bath.
(Buffer) solutions employed:
pH 4: 1 liter of Millipore water is adjusted to pH 4.0 with 1 N hydrochloric acid;
pH 7.4: 90.0 g of sodium chloride, 13.61 g of potassium dihydrogen phosphate and 83.35 g of 1 N sodium hydroxide solution are made up to 1 liter with water; this solution is then further diluted 1:10 with Millipore water.
5 μl portions of the test solution are analyzed by HPLC for their content of unchanged test substance, and of active substance (A) produced, every hour over a period of 24 hours at 37° C. The percentage areas of the appropriate peaks are used for quantification.
HPLC method for Examples 41 and 44:
(§3) Agilent 1100 with DAD (G1315B), binary pump (G1312A), autosampler (G1329A), column oven (G1316A), thermostat (G1330B); column: Kromasil 100 C18, 250 mm×4 mm, 5 μm; column temperature: 30° C.; mobile phase A: water+5 ml of perchloric acid/liter, eluent B: acetonitrile; gradient: 0 min 90% A→5.0 min 40% A→18.0 min 10% A→19.0 min 10% A→21.0 min 90% A→23.0 min 90% A; flow rate: 2.0 ml/min; UV detection: 288 nm.
HPLC Method for Examples 50 and 59:
as §3, with “125” for “250”, “60% A→7.0 min 60% A→10.0” for “40% A→18.0”, “A→12.0” for “A→19.0”, “A→14.0” for “A→21.0”, “A→16.0” for “A→23.0”, “294” for “288”
HPLC Method for Example 54:
as §3, with “(G1314A),” for “(G1315B),”, “(G1330A);” for “(G1330B);”
The ratios of the peak areas (F) at the respective time points in relation to the peak areas at the starting time are shown in Table 2 for representative exemplary embodiments: […]

[4] = Oral pharmacokinetics in Wistar rats; format: in vivo; settings: after oral administration
Procedure: f) Oral Pharmacokinetics in Wistar Rats:
as §1
as §2, with “stomach by gavage.” for “tail vein using a Hamilton® glass syringe (bolus administration, duration of administration<10 s).”
The measured plasma concentrations are used to calculate pharmacokinetic parameters of the test substance and of the active ingredient compound (A) liberated therefrom, such as AUC, Cmax and T1/2 (half-life).

[5] = Determination of the solubility in 5% strength aqueous dextrose solution; format: physicochemical; settings: saline or isotonic, thermodynamic from solid, room temperature, 24 h
Procedure: B-8. Determination of Solubility, Stability and Liberation Behavior a) Determination of the Solubility:
The test substance is suspended in 5% strength aqueous dextrose solution. This suspension is shaken at room temperature for 24 h. After ultracentrifugation at 224 000 g for 30 min, the supernatant is diluted with DMSO and analyzed by HPLC. A two-point calibration plot of the test compound in DMSO is used for quantification.
Agilent 1100 with DAD (G1315A), quat. pump (G1311A), autosampler CTC HTS PAL, degasser (G1322A) and column thermostat (G1316A); column: Phenomenex Gemini C18, 5 μm, 50 mm×2 mm; temperature: 40° C.; eluent A: water/phosphoric acid pH 2; eluent B: acetonitrile; flow rate: 0.7 ml/min; gradient: 0-0.5 min 85% A, 15% B; ramp: 0.5-3 min 10% A, 90% B; 3-3.5 min 10% A, 90% B; ramp: 3.5-4 min 85% A, 15% B; 4-5 min 85% A, 15% B.
Agilent 1100 with DAD (G1315A), quat. pump (G1311A), autosampler CTC HTS PAL, degasser (G1322A) and column thermostat (G1316A); column: VDSoptilab Kromasil 100 C18, 3.5 μm, 60 mm×2.1 mm; temperature: 30° C.; eluent A: water+5 ml perchloric acid/I; eluent B: acetonitrile; flow rate: 0.75 ml/min; gradient: 0-0.5 min 98% A, 2% B; ramp: 0.5-4.5 min 10% A, 90% B; 4.5-6 min 10% A, 90% B; ramp: 6.5-6.7 min 98% A, 2% B; 6.7-7.5 min 98% A, 2% B.

[6] = Stability as solid (90° C., 7 days); format: physicochemical; settings: sealed vial, HPLC
Procedure: To assess the stability of the solids, 20 mg of the solids obtained in this manner are stored in a sealed Head-Space vial at 90° C. in a drying cabinet without vacuum for 7 days. HPLC is then used to measure whether there has been a degradation of the test substance.
HPLC Method for Measuring the Stability of the Solid of Example 63:
HPLC Method for Measuring the Stability of the Solid of Example 44: […]

[7] = Stability in suspension (isopropanol, 7 days); format: physicochemical; settings: room temperature, LC/MS
Procedure: c) Stability in Suspension and as Solid:
4.7-4.8 g of the test substance are suspended in 200 ml of isopropanol and stirred at room temperature for 7 days. The solid is filtered off and air-dried at room temperature for 3 days. LC/MS (Method 2) is then used to measure whether there has been a degradation of the test substance.

Row | % test substance after 4 h (F(t = 4 h) × 100/F(t = 0 h)) ([3]; pH 4, 37° C.) [%] | % test substance after 24 h (F(t = 24 h) × 100/F(t = 0 h)) ([3]; pH 4, 37° C.) [%] | % test substance after 4 h (F(t = 4 h) × 100/F(t = 0 h)) ([3]; pH 7.4, 37° C.) [%] | % test substance after 24 h (F(t = 24 h) × 100/F(t = 0 h)) ([3]; pH 7.4, 37° C.) [%] | solubility at 24 h [5] [µg/mL] | Degradation of the solid [6] | Degradation of the test substance in suspension [7] | SMILES | Heart rate reduction [1] [%] | Detectability of the administered substance in plasma [2] | Detectability of the administered substance in plasma [4]
1 | 97 | 99 | 37 | 0 | 650 |  |  | C[C@H](NC(=O)[C@@H](N)CCCCN)C(=O)OCCOc1ccc(-c2c(C#N)c(SCc3csc(-c4ccc(Cl)cc4)n3)nc(N3CCCC3)c2C#N)cc1 [Example 41, 2-{4-(2-({(2-(4-Chlorophenyl)-1,3-thiazol-4-ylmethyl}sulfanyl)-3,5-dicyano-6-(pyrrolidin-1-yl)pyridin-4-yl)phenoxy}ethyl L-lysyl-L-alaninatedihydrochloride] | −5 | no longer detectable in plasma even at the first measurement point | no longer detectable in plasma even at the first measurement point
2 | 99 | 99 | 78 | 26 | 410 | no degradation | no degradation | C[C@H](N)C(=O)N[C@@H](C)C(=O)OCCOc1ccc(-c2c(C#N)c(SCc3csc(-c4ccc(Cl)cc4)n3)nc(N3CCCC3)c2C#N)cc1 [Example 44, 2-{4-(2-({(2-(4-Chlorophenyl)-1,3-thiazol-4-yl)methyl}sulfanyl)-3,5-dicyano-6-(pyrrolidin-1-yl)pyridin-4-yl)phenoxy}ethyl L-alanyl-L-alaninate hydrochloride] | −20 | no longer detectable in plasma even at the first measurement point | no longer detectable in plasma even at the first measurement point
3 | 98 | 98 | 93 | 67 |  | no degradation | no degradation | CC[C@H](C)[C@H](N)C(=O)N[C@@H](C)C(=O)OCCOc1ccc(-c2c(C#N)c(SCc3csc(-c4ccc(Cl)cc4)n3)nc(N3CCCC3)c2C#N)cc1 [Example 63, 2-{4-(2-({(2-(4-Chlorophenyl)-1,3-thiazol-4-yl)methyl}sulfanyl)-3,5-dicyano-6-(pyrrolidin-1-yl)pyridin-4-yl)phenoxy}ethyl L-isoleucyl-L-alaninate hydrochloride] | −20 | no longer detectable in plasma even at the first measurement point | no longer detectable in plasma even at the first measurement point

Reference: patent US8772498B2, “Alkylamine-substituted dicyanopyridine and amino acid ester prodrugs thereof” (Bayer Intellectual Property GmbH, priority 2009, dated 2014)
